In the Deep4Chem optical property database:
Blank lines part the entries; values can stand above or below the molecule they belong to.

Test: solvent given as SMILES

emission maximum (in ClCCl): 478 nm
SMILES: O=c1c2cc(C#Cc3ccc(Cl)cc3)ccc2nc2ccc(C#Cc3ccc(Cl)cc3)cn12

emission maximum (in CO): 658 nm | emission maximum (in CS(C)=O): 657 nm | emission maximum (in O): 658 nm
SMILES: CCCN1/C(=C/C=C(/C=C/C2=[N+](CCC)c3ccccc3C2(C)C)c2cc[n+](C)cc2)C(C)(C)c2ccccc21

emission maximum (in ClCCl): 441 nm
SMILES: CCCCn1c(-c2ccc(-c3nnc(-c4ccccc4)o3)cc2)nc(-c2ccccc2)c1-c1ccccc1

emission maximum (in ClCCl): 426 nm
SMILES: N#Cc1ccc(C2=Cc3ccccc3P2(=O)c2ccccc2)cc1 (stereo not given)

emission maximum (in ClCCl): 470 nm
SMILES: Fc1ccc(N(c2ccccc2)c2ccc3ccc4c(N(c5ccccc5)c5ccc(F)cc5)ccc5ccc2c3c54)cc1

emission maximum (in ClCCl): 430 nm
SMILES: CC(C)(C)c1ccc(-n2c(-c3ccc(N(c4ccc(-c5ccc(N(c6ccc(-c7nc8c9ccccc9c9ccccc9c8n7-c7ccc(C(C)(C)C)cc7)cc6)c6ccc(-c7nc8c9ccccc9c9ccccc9c8n7-c7ccc(C(C)(C)C)cc7)cc6)cc5)cc4)c4ccc(-c5nc6c7ccccc7c7ccccc7c6n5-c5ccc(C(C)(C)C)cc5)cc4)cc3)nc3c4ccccc4c4ccccc4c32)cc1

emission maximum (in ClCCl): 652 nm
SMILES: CCCCN1C(=O)c2cc(Oc3ccc(C(C)(C)C)cc3)c3c4c(Oc5ccc(C(C)(C)C)cc5)cc5c(=O)[nH]/c(=C\c6ccccn6)c6cc(Oc7ccc(C(C)(C)C)cc7)c(c7c(Oc8ccc(C(C)(C)C)cc8)cc(c2c37)C1=O)c4c56

emission maximum (in ClCCl): 384 nm
SMILES: C[Si]1(C)c2ccccc2-c2cc3c(cc21)-c1ccccc1[Si]3(C)C

Continued, molecule first:

SMILES: CCCCCCCCCCCCC1(CCCCCCCCCCCC)c2cc(-c3ccc(C=C4C(=O)c5ccccc5C4=O)cc3)ccc2-c2ccc(-c3ccc(C=C4C(=O)c5ccccc5C4=O)cc3)cc21
emission maximum (in C1CCOC1): 531 nm | emission maximum (in CC(C)=O): 566 nm | emission maximum (in CCCCCC): 463 nm | emission maximum (in CS(C)=O): 598 nm | emission maximum (in Cc1ccccc1): 490 nm | emission maximum (in ClC(Cl)Cl): 529 nm

SMILES: COCCOCCOCCOc1cc(C=O)c(OCCOCCOCCOC)cc1C=O
emission maximum (in CC(C)(C)O): 478 nm | emission maximum (in CC(C)CO): 479 nm | emission maximum (in CC(C)O): 481 nm | emission maximum (in CCCCO): 472 nm | emission maximum (in CCCO): 471 nm | emission maximum (in CCO): 465 nm | emission maximum (in CN(C)C=O): 464 nm | emission maximum (in CNC=O): 450 nm | emission maximum (in CO): 467 nm | emission maximum (in NC=O): 458 nm | emission maximum (in O): 495 nm

SMILES: CC1(C)CC(/C=C/c2ccc(-n3cncn3)cc2)=CC(=C(C#N)C#N)C1
emission maximum (in C1CCOC1): 520 nm | emission maximum (in CC#N): 522 nm | emission maximum (in CCO): 518 nm | emission maximum (in CCOC(C)=O): 515 nm | emission maximum (in ClCCl): 518 nm | emission maximum (in c1ccccc1): 511 nm

SMILES: COC(=O)c1ccc2ccc3cccc4ccc1c2c34
emission maximum (in C1CCOC1): 388 nm | emission maximum (in CC#N): 389 nm | emission maximum (in CCCCCC): 385 nm | emission maximum (in CCO): 391 nm | emission maximum (in CN(C)C=O): 391 nm | emission maximum (in CO): 392 nm | emission maximum (in Cc1ccccc1): 390 nm | emission maximum (in ClCCl): 390 nm

SMILES: C1=C(c2ccccc2)C2=Nc3c(-c4ccccc4)cc4n3[B-]3(Oc5ccccc5C1=[N+]23)Oc1ccccc1-4 (stereo not given)
emission maximum (in Cc1ccccc1): 746 nm

SMILES: CN(C)c1ccc(-c2c(/C=C3/C=Cc4ccccc4N3C)c(=O)c2=O)cc1
emission maximum (in C1CCCCC1): 427 nm | emission maximum (in Cc1ccccc1): 435 nm | emission maximum (in ClCCl): 588 nm

SMILES: C[SiH]1c2ccccc2-c2cc3c(cc21)-c1ccccc1[SiH]3C (stereo not given)
emission maximum (in ClCCl): 389 nm

SMILES: CCCCCN(c1ccccc1)c1ccc2c(c1)C(CC)(CC)c1cc(/C=C/c3ccc(/C=C(\C#N)C(=O)O)s3)ccc1-2
emission maximum (in C1CCOC1): 597 nm | emission maximum (in C1COCCO1): 618 nm | emission maximum (in CC#N): 496 nm | emission maximum (in CC(C)=O): 574 nm | emission maximum (in CCOC(C)=O): 580 nm | emission maximum (in CN(C)C=O): 504 nm | emission maximum (in CS(C)=O): 517 nm | emission maximum (in ClCCl): 584 nm

SMILES: B1C=Cc2ccc3ccccc3c2N1
emission maximum (in C1CCCCC1): 371 nm
